Among the data in US20120122843A1, “Compounds and Their Use for Treatment of Amyloid Beta-Related Diseases” (ASTRAZENECA AB, priority 2010, published 2012) are IC50 values, retold here.

In one assay the test system is Aβ42. Put plainly: Aβ42 release from HEK cells stably expressing APPswe (MSD electrochemiluminescence). It is filed as cell-based, Human. Conditions: Homo sapiens, HEK293, HEK cells expressing APPswe; 4-6 h incubation with test compound; Aβ42 secreted to cell medium. The procedure:
The level of activity of the compounds on Aβ formation was tested using the following method:
Compounds were diluted in 100% DMSO and stored at […] prior to use. Human Embryonic Kidney (HEK) cell line stably expressing APP with the Swedish mutation (APPswe) were cultured using Dulbecco's Modified Eagles medium (DMEM) supplied with […] glucose, Na-pyruvate and GlutaMAX with 10% FBS, 100 U/ml penicillin-streptomycin (PEST) respectively, 1× non-essential amino acids (NEAA), […] Hepes, 100 μg/ml Zeocine. Cells at about 80% confluence were washed with PBS, detached from culture flasks using 1× Trypsin/EDTA diluted in PBS, re-suspended in cell media and plated in 384-well poly-d-lysine coated cell culture plates at about 10000-15000 cells/well, in 25 μL cell media. Optionally, cryo-preserved cells (frozen and stored at −140° C. in 90% cell media and 10% DMSO) were thawed, washed and plated as above. Next the cells were incubated for 15-24 h at 37° C. and 5% CO2, after which cell medium was changed. Fresh medium containing test compound diluted ×200 from prepared compound plate was added to the cells before further incubation for 4-6 hours at 37° C. and 5% CO2. After incubation with test compound the amount of Aβ peptides, including Aβ42, Aβ40, Aβ39, Aβ38 and Aβ37, as well as total Aβ levels, secreted to cell medium was analyzed using the electrochemiluminescence assay technology from Meso Scale Discovery (MSD), in combination with specific antibodies raised against the different Aβ peptides. Aβ42, Aβ40 and Aβ38 antibodies were purchased from MSD and Aβ37 and Aβ39 were made in house. Total Aβ was measured using a combination of 6E10 and 4G8 anti Aβ antibodies from MSD. Potential cytotoxic effects of the compounds were usually assayed by measuring the ATP content (ViaLight) from cell lysate.

The next assay relates to Notch. Put plainly: Release and translocation of Notch intracellular domain into the nucleus, HEK/AENotch cells (NICD immunostaining, ImageXpress). It is filed as cell-based, Human. To be noted: Homo sapiens, 3 μM Lactacystin, 4-6 h incubation, nucleus/cytosol NICD fluorescence ratio. The procedure: The level of activity of the compounds on release and translocation of Notch intracellular domain into the cell nucleus was tested using the following method:
Compounds were diluted in 100% DMSO and stored at […] prior to use. Human Embryonic Kidney cell line overexpressing Notchl-E-human-myc construct (referred to as HEK/AENotch) were cultured in T75 cm^2 or T225 cm^2 cell culture flasks using Dulbecco's Modified Eagles medium (DMEM) supplemented with […] glucose, Na-pyruvate and GlutaMAX with 10% FBS, 100 U/ml penicillin-streptomycin (PEST) respectively, 1× non-essential amino acids (NEAA), […] Hepes and 100 μg/ml Hygromycin. Cells at about 80% confluence were washed with PBS, detached from the flask bottom using 1× Trypsin/EDTA diluted in PBS, re-suspended in cell media and plated in 384-well plates at about 10000 cells/well, in 25 μL cell media. Optionally, cryo-preserved cells (frozen and stored at −140° C. in 90% cell media and 10% DMSO) were thawed, washed and plated as above. Next the cells were incubated for 15-24 h at 37° C. and 5% CO2, after which cell medium was replaced with fresh medium containing 3 μM Lactacystin and test compound diluted ×200 from prepared compound plate giving 0.5% final DMSO concentration, and the highest compound concentration typically 25 μM. Cells were then incubated 4-6 h with test compound before being fixed, washed and immunostained with NICD antibody (rabbit Notch 1 (C-20)). Image acquisition of cytosolic/membrane and nuclear fluorescence as well as subsequent analysis of the nucleus and cytosolic fluorescence ratio was carried out using ImageXpress. Potential cytotoxic effects of the compounds were usually assayed by analysis of nucleus area or cell number.

Usually IC50 stands for the concentration that gives 50% inhibition. With `COc1nc(Nc2cc(C)c3c(n2)OC(CC(F)(F)F)CN(C)C3)ccc1-c1cnn(C)c1` (stereo not shown) [Example 2, N-(6-Methoxy-5-(1-methyl-1H-pyrazol-4-yl)pyridin-2-yl)-4,6-dimethyl-2-(2,2,2-trifluoroethyl)-2,3,4,5-tetrahydropyrido[3,2-f][1,4]oxazepin-8-amine], the half-inhibitory concentration (IC50) in the assay on Aβ42 amounted to 0.023 µM; with Notch it was 1.14 µM.
Take `COc1nc(Nc2ccc3c(n2)OC(CC(F)(F)F)CN(C)C3)ccc1-c1cnn(C)c1` (stereo not shown) [Example 3, N-(6-Methoxy-5-(1-methyl-1H-pyrazol-4-yl)pyridin-2-yl)-4-methyl-2-(2,2,2-trifluoroethyl)-2,3,4,5-tetrahydropyrido[3,2-f][1,4]oxazepin-8-amine]: the figures for the IC50 in the assay on Aβ42 and in the assay on Notch were 0.017 µM and over 25 µM, respectively.
Take `COc1nc(Nc2ccc3c(n2)OC(CC(F)(F)F)CN(C)C3)ccc1-n1cnc(C)c1` (stereo not shown) [Example 6, N-(6-Methoxy-5-(4-methyl-1H-imidazol-1-yl)pyridin-2-yl)-4-methyl-2-(2,2,2-trifluoroethyl)-2,3,4,5-tetrahydropyrido[3,2-f][1,4]oxazepin-8-amine]: the IC50 in the assay with Aβ42 was 0.018 µM; with Notch, over 7.9 µM.
For `COc1nc(Nc2ccc3c(n2)OC(CC(F)(F)F)CN(C)C3)ccc1-c1cc(C)ncn1` (stereo not shown) [Example 7, [6-Methoxy-5-(6-methyl-pyrimidin-4-yl)-pyridin-2-yl]-[6-methyl-8-(2,2,2-trifluoro-ethyl)-5,6,7,8-tetrahydro-9-oxa-1,6-diaza-benzocyclohepten-2-yl]-amine], the figures for the IC50 in the assay with Aβ42 and with Notch were 0.135 µM and over 25 µM, respectively.
In the same order, the values of `COc1nc(Nc2ccc3c(n2)OC(CC(F)(F)F)CN(C)C3)ccc1-c1ccnc(C)c1` (stereo not shown) [Example 8, (2-Methoxy-2′-methyl-[3,4′]bipyridinyl-6-yl)-[6-methyl-8-(2,2,2-trifluoro-ethyl)-5,6,7,8-tetrahydro-9-oxa-1,6-diaza-benzocyclohepten-2-yl]-amine] are 0.005 µM and 3.25 µM.
`COc1nc(Nc2ccc3c(n2)OC(c2nc(C)cs2)CN(C)C3)ccc1-c1cnn(C)c1` (stereo not shown) [Example 9, N-(6-Methoxy-5-(1-methyl-1H-pyrazol-4-yl)pyridin-2-yl)-4-methyl-2-(4-methylthiazol-2-yl)-2,3,4,5-tetrahydropyrido[3,2-f][1,4]oxazepin-8-amine]: the IC50 with Aβ42 was 0.019 µM; in the assay on Notch, over 15.8 µM.
As for `COc1nc(Nc2cc(C)c3c(n2)OC(C2CC2)CN(C)C3)ccc1-c1cnn(C)c1` (stereo not shown) [Example 13, 2-Cyclopropyl-N-(6-methoxy-5-(1-methyl-1H-pyrazol-4-yl)pyridin-2-yl)-4,6-dimethyl-2,3,4,5-tetrahydropyrido[3,2-f][1,4]oxazepin-8-amine], the IC50 in the assay on Aβ42 is 0.048 µM; with Notch it was over 5 µM.
The corresponding values for `Cc1cn(-c2ccc(Nc3ccc4c(n3)O[C@H](c3ccccc3)CN(C)C4)nc2)cn1` [Example 14, (R)-4-Methyl-N-(5-(4-methyl-1H-imidazol-1-yl)pyridin-2-yl)-2-phenyl-2,3,4,5-tetrahydropyrido[3,2-f][1,4]oxazepin-8-amine] are 0.024 µM and over 50 µM.
`Cc1ncn(-c2ccc(Nc3ccc4c(n3)OC(c3cccc(Cl)c3)CN(C)C4)nc2)n1` (stereo not shown) [Example 23, 2-(3-Chlorophenyl)-4-methyl-N-(5-(3-methyl-1H-1,2,4-triazol-1-yl)pyridin-2-yl)-2,3,4,5-tetrahydropyrido[3,2-f][1,4]oxazepin-8-amine]: the figures for the IC50 in the assay with Aβ42 and with Notch were 0.055 µM and over 2.5 µM, respectively.
The corresponding values for `Cc1ncn(-c2ccc(Nc3ccc4c(n3)OC(c3ccc(Cl)cc3)CN(C)C4)nc2)n1` (stereo not shown) [Example 24, 2-(4-Chlorophenyl)-4-methyl-N-(5-(3-methyl-1H-1,2,4-triazol-1-yl)pyridin-2-yl)-2,3,4,5-tetrahydropyrido[3,2-f][1,4]oxazepin-8-amine] are 0.081 µM and over 7.9 µM.
Consider `COc1nc(Nc2ccc3c(n2)OC(c2ncc(C)s2)CN(C)C3)ccc1-c1cnn(C)c1` (stereo not shown) [Example 39, N-(6-Methoxy-5-(1-methyl-1H-pyrazol-4-yl)pyridin-2-yl)-4-methyl-2-(5-methylthiazol-2-yl)-2,3,4,5-tetrahydropyrido[3,2-f][1,4]oxazepin-8-amine], for which the IC50 in the assay on Aβ42 was 0.028 µM; in the assay with Notch, over 25 µM.
With `COc1nc(Nc2ccc3c(n2)OC(c2ncc(C)s2)CN(C)C3)ccc1-n1cnc(C)c1` (stereo not shown) [Example 40, N-(6-Methoxy-5-(4-methyl-1H-imidazol-1-yl)pyridin-2-yl)-4-methyl-2-(5-methylthiazol-2-yl)-2,3,4,5-tetrahydropyrido[3,2-f][1,4]oxazepin-8-amine], the IC50 is 0.009 µM with Aβ42 and 3.64 µM in the assay on Notch.
In the same order, the values of `COc1nc(Nc2ccc3c(n2)OC(c2ccc(C)cn2)CN(C)C3)ccc1-c1cnn(C)c1` (stereo not shown) [Example 41, N-(6-Methoxy-5-(1-methyl-1H-pyrazol-4-yl)pyridin-2-yl)-4-methyl-2-(5-methylpyridin-2-yl)-2,3,4,5-tetrahydropyrido[3,2-f][1,4]oxazepin-8-amine] are 0.06 µM and over 25 µM.
The corresponding values for `COc1nc(Nc2ccc3c(n2)OC(c2cc(C)ccn2)CN(C)C3)ccc1-c1cnn(C)c1` (stereo not shown) [Example 42, N-(6-Methoxy-5-(1-methyl-1H-pyrazol-4-yl)pyridin-2-yl)-4-methyl-2-(4-methylpyridin-2-yl)-2,3,4,5-tetrahydropyrido[3,2-f][1,4]oxazepin-8-amine] are 0.046 µM and over 25 µM.
In the same order, the values of `COc1nc(Nc2ccc3c(n2)OC(CC(F)(F)F)CN(C)C3)ccc1-c1ccnc(C)n1` (stereo not shown) [Example 46, N-[6-Methoxy-5-(2-methylpyrimidin-4-yl)-2-pyridyl]-4-methyl-2-(2,2,2-trifluoroethyl)-3,5-dihydro-2H-pyrido[3,2-f][1,4]oxazepin-8-amine] are 0.033 µM and over 25 µM.
As for `COc1nc(Nc2ccc3c(n2)OC(CC(F)(F)F)CN(C)C3)ccc1-c1cnc(C)o1` (stereo not shown) [Example 47, N-[6-Methoxy-5-(2-methyloxazol-5-yl)-2-pyridyl]-4-methyl-2-(2,2,2-trifluoroethyl)-3,5-dihydro-2H-pyrido[3,2-f][1,4]oxazepin-8-amine], the IC50 in the assay with Aβ42 is 0.004 µM; in the assay on Notch it was over 25 µM.
Regarding `Cc1cn(-c2ccc(Nc3ccc4c(n3)OC(CC(F)(F)F)CN(C)C4)nc2C#N)cn1` (stereo not shown) [Example 48], the IC50 is 0.061 µM with Aβ42 and over 25 µM in the assay with Notch.
Consider `COc1nc(Nc2ccc3c(n2)O[C@H](c2nc(C)cs2)CN(C)C3)c(F)cc1-c1cnn(C)c1` [Example 54, (2S)—N-[3-Fluoro-6-methoxy-5-(1-methylpyrazol-4-yl)-2-pyridyl]-4-methyl-2-(4-methylthiazol-2-yl)-3,5-dihydro-2H-pyrido[3,2-f][1,4]oxazepin-8-amine], for which the values for the IC50 in the assay on Aβ42 and in the assay with Notch were 0.018 µM and 6.49 µM, respectively.
For the compound `Cc1cn(-c2ccc(Nc3ccc4c(n3)O[C@H](c3nc(C)cs3)CN(C)C4)nc2C#N)cn1` [Example 55, 3-(4-Methylimidazol-1-yl)-6-[[(2S)-4-methyl-2-(4-methylthiazol-2-yl)-3,5-dihydro-2H-pyrido[3,2-f][1,4]oxazepin-8-yl]amino]pyridine-2-carbonitrile], the figures for the concentration for half-maximal inhibition (IC50) in the assay with Aβ42 and in the assay with Notch were 0.044 µM and over 25 µM, respectively.
The corresponding values for `COc1nc(Nc2ccc3c(n2)O[C@H](c2ccccc2)CN(C)C3)ccc1-c1cn[nH]c1` [Example 56, (2R)—N-[6-Methoxy-5-(1H-pyrazol-4-yl)-2-pyridyl]-4-methyl-2-phenyl-3,5-dihydro-2H-pyrido[3,2-f][1,4]oxazepin-8-amine] are 0.098 µM and over 25 µM.
